The results in this text go back to patent US11358969B2, “Indole AHR inhibitors and uses thereof” (Ikena Oncology, Inc., priority 2017, dated 2022).

The target in data set [1] is T1, AHR (UniProt P35869).
T1 construct: IC50
T1 sequence (P35869 1-848): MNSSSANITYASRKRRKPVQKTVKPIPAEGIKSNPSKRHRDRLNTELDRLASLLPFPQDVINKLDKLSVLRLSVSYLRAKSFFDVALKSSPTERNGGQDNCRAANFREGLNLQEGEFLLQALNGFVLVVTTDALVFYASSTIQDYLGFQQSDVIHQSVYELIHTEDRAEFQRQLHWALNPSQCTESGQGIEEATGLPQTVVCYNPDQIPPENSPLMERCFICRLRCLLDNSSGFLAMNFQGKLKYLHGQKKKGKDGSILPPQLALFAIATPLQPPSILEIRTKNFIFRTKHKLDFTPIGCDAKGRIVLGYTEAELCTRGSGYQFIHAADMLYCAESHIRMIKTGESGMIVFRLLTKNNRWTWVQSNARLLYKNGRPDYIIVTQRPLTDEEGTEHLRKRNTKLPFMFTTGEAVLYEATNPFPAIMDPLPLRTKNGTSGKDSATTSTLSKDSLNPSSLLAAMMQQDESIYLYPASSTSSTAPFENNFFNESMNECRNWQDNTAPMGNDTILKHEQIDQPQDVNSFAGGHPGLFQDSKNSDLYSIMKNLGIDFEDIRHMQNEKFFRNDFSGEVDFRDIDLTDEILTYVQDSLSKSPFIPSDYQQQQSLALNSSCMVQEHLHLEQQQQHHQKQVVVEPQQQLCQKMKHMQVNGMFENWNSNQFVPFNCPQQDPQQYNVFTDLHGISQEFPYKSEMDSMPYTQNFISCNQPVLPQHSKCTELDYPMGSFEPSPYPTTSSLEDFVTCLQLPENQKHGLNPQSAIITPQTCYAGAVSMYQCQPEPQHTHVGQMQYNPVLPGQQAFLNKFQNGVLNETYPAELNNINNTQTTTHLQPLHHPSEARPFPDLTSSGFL
The data set can be described thus: DRE-Luciferase Reporter Assay (Alternate Method) (Example 1B). In kind it is cell-based, murine or human. The settings on record: cell line and AHR activating ligand not specified. For orientation: In a reporter assay the amount or activity of a reporter protein is the signal.

Data set [2] can be described thus: Mouse Pharmacokinetic Study (Example 1C). In kind it is in vivo. The conditions noted are these: mouse, plasma, CD-1 mice; for Vd: read-out: Vdss. On the procedure:
Formulations of compounds set forth in Table 4 were administered intravenously or orally via gavage to CD-1 mice. Typically, at 0.167, 0.5, 1, 2, 4, 6, 12, and 24 hours post-dose, blood was collected and processed to plasma by centrifugation and stored at −80° C. until analysis.
Internal standard was added to each sample prior to protein precipitation with acetonitrile. The precipitates were filtered through a Phree phospholipid removal filter plate and the samples were analyzed by LC/MS/MS. A standard curve was prepared in plasma from typically from 1.0 ng/mL to 3000 ng/mL and processed in the same manner as the samples. Sample analysis was typically performed on a suitable LC/MS/MS system fitted with an analytical UPLC column and compounds eluted from the analytical column with a gradient from 30-95% 0.1% formic acid (v/v) in ACN: 0.1% formic acid (v/v) in water. Mass spectrometric detection of test compound and the internal standard was performed by MRM in positive mode. The pharmacokinetics of each compound were analyzed by Phoenix WinNonlin software (Pharsight, St. Louis, Mo.) via non-compartmental analysis.

Consider `CC(C)c1cnn2c(N[C@H]3CCc4[nH]ccc4C3)nc(-c3cncc(F)c3)nc12` [I-137a, 2-(5-fluoro-3-pyridyl)-8-isopropyl-N-[(5S)-4,5,6,7-tetrahydro-1H-indol-5-yl]pyrazolo[1,5-a][1,3,5]triazin-4-amine], for which the IC50 (commonly the midpoint of a concentration-inhibition curve) in data set [1] was less than 500 nM. Also, in data set [2] (po, 30 mg/kg), the bioavailability – broadly, dose-corrected exposure relative to a reference, in per cent – was determined as 19%; the AUC(0-inf) (usually the area under the concentration-time curve extrapolated to infinity) is 3840 ng·h/mL; the AUC(0-t) (as a rule, the area under the concentration-time curve up to a stated or last time point) turned out to be 3780 ng·h/mL; the peak level (Cmax) was 953 ng/mL. Moreover, in data set [2] (po, 30 mg/kg), the Tmax (commonly the time from dosing to the highest level) came out at 0.5 h and the half-life (commonly the time in which the quantity being followed falls by half) is 3.5 h. Also, in data set [2] (iv, 3 mg/kg), the AUC(0-inf) worked out at 2010 ng·h/mL; the AUC(0-t) was 1920 ng·h/mL; the clearance (in general, the volume of plasma or blood freed of the substance per unit of time) is 25 mL/min/kg; the half-life was 8.2 h. In data set [2] (iv, 3 mg/kg), the Vd was 6.6 L/kg.

For the compound `C[C@H](O)c1cnn2c(N[C@@H]3CCc4[nH]c5ccccc5c4C3)nc(-c3cncc(F)c3)nc12` [I-118], in data set [2] (po, 30 mg/kg), the bioavailability amounted to 3%, the AUC(0-inf) is 121 ng·h/mL, the AUC(0-t) was determined as 107 ng·h/mL and the Cmax (commonly the peak of the concentration-time curve) stood at 41 ng/mL. In data set [2] (po, 30 mg/kg), the Tmax was determined as 1 h and the half-life was 1.9 h. In data set [2] (iv, 3 mg/kg), this compound showed an AUC(0-inf) of 368 ng·h/mL, an AUC(0-t) of 364 ng·h/mL, a clearance of 136 mL/min/kg and a half-life of 0.6 h. Further, the Vd in data set [2] (iv, 3 mg/kg) worked out at 4.9 L/kg.

On to `CN(C)c1cnn2c(N[C@@H]3CCc4[nH]c5ccccc5c4C3)nc(-c3cncc(F)c3)nc12` [I-129, 2-(5-Fluoro-3-pyridyl)-N8,N8-dimethyl-N4-[(3R)-2,3,4,9-tetrahydro-1H-carbazol-3-yl]pyrazolo[1,5-a][1,3,5]triazine-4,8-diamine], for which the IC50 in data set [1] is less than 500 nM. In addition, in data set [2] (po, 30 mg/kg), the bioavailability amounted to 53%, the AUC(0-inf) stood at 7530 ng·h/mL, the AUC(0-t) was determined as 7030 ng·h/mL and the highest level (Cmax) was 1040 ng/mL. In data set [2] (po, 30 mg/kg), the Tmax came to 2 h and the half-life is 6.4 h. Moreover, in data set [2] (iv, 3 mg/kg), the AUC(0-inf) stood at 1620 ng·h/mL, the AUC(0-t) came out at 1340 ng·h/mL, the clearance was 31 mL/min/kg and the half-life is 14 h. Besides, in data set [2] (iv, 3 mg/kg), the Vd came to 22 L/kg.

`Cc1cnn2c(N[C@H]3CCc4[nH]ccc4C3)nc(-c3cncc(F)c3)nc12` [I-259a, 2-(5-fluoro-3-pyridyl)-8-methyl-N-[(5S)-4,5,6,7-tetrahydro-1H-indol-5-yl]pyrazolo[1,5-a][1,3,5]triazin-4-amine] had an IC50 in data set [1] of less than 500 nM. Moreover, in data set [2] (po, 30 mg/kg), the bioavailability was found to be 3%, the AUC(0-inf) amounted to 249 ng·h/mL, the AUC(0-t) is 237 ng·h/mL and the Cmax was determined as 82 ng/mL. Also, in data set [2] (po, 30 mg/kg), the Tmax is 0.5 h and the half-life is 1.2 h. In data set [2] (iv, 3 mg/kg), this compound gave an AUC(0-inf) of 842 ng·h/mL, an AUC(0-t) of 825 ng·h/mL, a clearance of 59 mL/min/kg and a half-life of 1.2 h. The Vd in data set [2] (iv, 3 mg/kg) was 4.7 L/kg.

For `Fc1cncc(-c2nc(N[C@@H]3CCc4[nH]c5ccccc5c4C3)c3ncccc3n2)c1` [I-126, (3R)—N-[2-(5-Fluoro-3-pyridyl)pyrido[3,2-d]pyrimidin-4-yl]-2,3,4,9-tetrahydro-1H-carbazol-3-amine], in data set [1], the IC50 is less than 500 nM. In data set [2] (po, 30 mg/kg), this compound returned a bioavailability of 100%, an AUC(0-inf) of 14700 ng·h/mL, an AUC(0-t) of 13700 ng·h/mL and a Cmax of 1870 ng/mL. For the same compound, in data set [2] (po, 30 mg/kg), the Tmax stood at 1 h and the half-life is 6.1 h. Further, in data set [2] (iv, 3 mg/kg), the AUC(0-inf) stood at 1650 ng·h/mL, the AUC(0-t) was found to be 1460 ng·h/mL, the clearance was 30 mL/min/kg and the half-life is 8.8 h. Also, the Vd in data set [2] (iv, 3 mg/kg) was determined as 17 L/kg.

The compound `CC(C)c1cnn2c(N[C@@H]3CCc4[nH]ccc4C3)nc(-c3cncc(F)c3)nc12` [I-137b, 2-(5-fluoro-3-pyridyl)-8-isopropyl-N-[(5R)-4,5,6,7-tetrahydro-1H-indol-5-yl]pyrazolo[1,5-a][1,3,5]triazin-4-amine] returned an IC50 in data set [1] of less than 500 nM. In data set [2] (po, 30 mg/kg), this compound came in with a bioavailability of 28%, an AUC(0-inf) of 3830 ng·h/mL, an AUC(0-t) of 3630 ng·h/mL and a Cmax of 476 ng/mL. In addition, in data set [2] (po, 30 mg/kg), the Tmax was 2 h and the half-life is 5.9 h. Also, in data set [2] (iv, 3 mg/kg), the AUC(0-inf) is 1350 ng·h/mL, the AUC(0-t) is 1220 ng·h/mL, the clearance was 37 mL/min/kg and the half-life was 11.2 h. In addition, the Vd in data set [2] (iv, 3 mg/kg) amounted to 16.6 L/kg.

`N#Cc1cnn2c(N[C@@H]3CCc4[nH]c5ccccc5c4C3)nc(-c3cncc(F)c3)nc12` [I-130, 2-(5-Fluoro-3-pyridyl)-4-[[(3R)-2,3,4,9-tetrahydro-1H-carbazol-3-yl]amino]pyrazolo[1,5-a][1,3,5]triazine-8-carbonitrile] yielded an IC50 in data set [1] of less than 500 nM. In data set [2] (po, 30 mg/kg), this compound displayed a bioavailability of 53%, an AUC(0-inf) of 6690 ng·h/mL, an AUC(0-t) of 6620 ng·h/mL and a Cmax of 936 ng/mL. Also, in data set [2] (po, 30 mg/kg), the Tmax was determined as 2 h and the half-life was 3.5 h. Besides, in data set [2] (iv, 3 mg/kg), the AUC(0-inf) amounted to 1270 ng·h/mL, the AUC(0-t) is 1220 ng·h/mL, the clearance was determined as 39 mL/min/kg and the half-life is 2.6 h. Besides, in data set [2] (iv, 3 mg/kg), the Vd turned out to be 7.5 L/kg.

`Cc1cnn2c(NCCc3ccc(O)cc3)cc(-c3cncc(F)c3)nc12` [I-213, 4-[2-[[5-(5-fluoro-3-pyridyl)-3-methyl-pyrazolo[1,5-a]pyrimidin-7-yl]amino]ethyl]phenol]: in data set [1], the IC50 is less than 500 nM.

On to `CC(C)c1cnn2c(NC3CCc4[nH]c5ccccc5c4C3)nc(-c3cncc(C(F)(F)F)c3)nc12` (stereo not drawn) [I-279], for which the IC50 in data set [1] was more than 1500 nM.

Turning to `Fc1cncc(-c2cc(N[C@@H]3CCc4[nH]c5ccccc5c4C3)n3nccc3n2)c1` [I-41, (3R)—N-[5-(5-Fluoro-3-pyridyl)pyrazolo[1,5-a]pyrimidin-7-yl]-2,3,4,9-tetrahydro-1H-carbazol-3-amine], the IC50 in data set [1] is more than 1500 nM.

`CSc1nc(N[C@@H]2CCc3[nH]c4ccccc4c3C2)n2ncc(C(C)C)c2n1` [I-122, (3R)—N-(8-Isopropyl-2-methylsulfanyl-pyrazolo[1,5-a][1,3,5]triazin-4-yl)-2,3,4,9-tetrahydro-1H-carbazol-3-amine] registered an IC50 in data set [1] of more than 1500 nM.

For `Fc1cncc(-c2nc(N[C@@H]3CCc4[nH]c5ccccc5c4C3)n3ncc(C(F)(F)F)c3n2)c1` [I-267, (3R)—N-[2-(5-Fluoro-3-pyridyl)-8-(trifluoromethyl)pyrazolo[1,5-a][1,3,5]triazin-4-yl]-2,3,4,9-tetrahydro-1H-carbazol-3-amine], the IC50 in data set [1] was less than 500 nM.

`Cc1[nH]c2c(F)cccc2c1CCNc1cc(-c2cncc(F)c2)nc2c(C(C)C)cnn12` [I-66, N-[2-(7-fluoro-2-methyl-1H-indol-3-yl)ethyl]-5-(5-fluoro-3-pyridyl)-3-isopropyl-pyrazolo[1,5-a]pyrimidin-7-amine] gave an IC50 in data set [1] of less than 500 nM.

`Cc1[nH]c2c(F)cc(F)cc2c1CCNc1cc(-c2cncc(F)c2)nc2ccnn12` [I-85, N-(2-(5,7-Difluoro-2-methyl-1H-indol-3-yl)ethyl)-5-(5-fluoropyridin-3-yl)pyrazolo[1,5-a]pyrimidin-7-amine]: in data set [1], the IC50 fell in the range of 500 to 1000 nM.
